Assays:
Assay type in all cases: functional
Cavia porcellus [1] = species on record: Cavia porcellus; experiment: Inhibitory activity of the Compound was tested against LTD4 induced contraction of guinea pig trachea at 2*10e-5 M concentration.
Cavia porcellus [2] = species on record: Cavia porcellus; experiment: Inhibitory activity of the Compound was tested against U-46619 induced contraction of guinea pig trachea at 2*10e-5 M concentration.
Cavia porcellus [3] = species on record: Cavia porcellus; experiment: Inhibitory activity of the Compound was tested against U-46619 induced contraction of guinea pig trachea at 1*10e-5 M concentration.
Cavia porcellus [4] = species on record: Cavia porcellus; experiment: Inhibitory activity of the Compound was tested against LTD4 induced contraction of guinea pig trachea at 2*10e-6 M concentration.
Cavia porcellus [5] = species on record: Cavia porcellus; experiment: Inhibitory concentration of the Compound was tested against LTD4 induced contraction of guinea pig trachea.
Cavia porcellus [6] = species on record: Cavia porcellus; experiment: Inhibitory activity of the Compound was tested against LTD4 induced contraction of guinea pig trachea at 2*10e-7 M concentration.
Cavia porcellus [7] = species on record: Cavia porcellus; experiment: Inhibitory activity of the Compound was tested against U-46619 induced contraction of guinea pig trachea.
Cavia porcellus [8] = species on record: Cavia porcellus; experiment: Inhibitory activity of the Compound was tested against LTD4 induced contraction of guinea pig trachea at 3*10e-7 M concentration.
Cavia porcellus [9] = species on record: Cavia porcellus; experiment: Inhibitory activity of the Compound was tested against LTD4 induced contraction of guinea pig trachea at 1*10e-6 M concentration.
Cavia porcellus [10] = species on record: Cavia porcellus; experiment: Inhibitory activity of the Compound was tested against U-46619 induced contraction of guinea pig trachea at 1*10e-6 M concentration.
Cavia porcellus [11] = species on record: Cavia porcellus; experiment: Inhibitory activity of the Compound was tested against U-46619 induced contraction of guinea pig trachea at 3*10e-7 M concentration.
Cavia porcellus [12] = species on record: Cavia porcellus; experiment: Inhibitory activity of the Compound was tested against U-46619 induced contraction of guinea pig trachea at 3*10e-6 M concentration.
Cavia porcellus [13] = species on record: Cavia porcellus; experiment: Inhibitory activity of the Compound was tested against LTD4 induced contraction of guinea pig trachea at 3*10e-6 M concentration.
Cavia porcellus [14] = species on record: Cavia porcellus; experiment: Inhibitory activity of the Compound was tested against U-46619 induced contraction of guinea pig trachea at 2 *10e-7 M concentration.
Cavia porcellus [15] = species on record: Cavia porcellus; experiment: Inhibitory activity of the Compound was tested against U-46619 induced contraction of guinea pig trachea at 2*10e-6 M concentration.
Cavia porcellus [16] = species on record: Cavia porcellus; experiment: Inhibitory activity of the Compound was tested against U-46619 induced contraction of 2*10e-5 M concentration.
Cavia porcellus [17] = species on record: Cavia porcellus; experiment: Inhibitory activity of the Compound was tested against U-46619 induced contraction of guinea pig trachea at 2*10e-7 M concentration.
Cavia porcellus [18] = species on record: Cavia porcellus; experiment: Inhibitory activity of the Compound was tested against LTD4 induced contraction of guinea pig trachea at 1*10e-5 concentration.
Cavia porcellus [19] = species on record: Cavia porcellus; experiment: Inhibitory activity of the Compound was tested against U-46619 induced contraction of guinea pig trachea at 2*10e-5 concentration.
Cavia porcellus [20] = species on record: Cavia porcellus; experiment: Inhibitory activity of the Compound was tested against LTD4 induced contraction of guinea pig trachea at 1*10e-5 M concentration.
Cavia porcellus [21] = species on record: Cavia porcellus; experiment: Inhibitory activity of the Compound was tested against LTD4 induced contraction of guinea pig trachea at 2*10e5- M concentration.
Cavia porcellus [22] = species on record: Cavia porcellus; experiment: Inhibitory activity of the Compound was tested against LTD4 induced contraction of guinea pig trachea at 1*10e-4 M concentration.
Cavia porcellus [23] = species on record: Cavia porcellus; experiment: Inhibitory activity of the Compound was tested against U-46619 induced contraction of guinea pig trachea at 1*10e-4 M concentration.
Cavia porcellus [24] = species on record: Cavia porcellus; experiment: Inhibitory activity of the Compound was tested against U-46619 induced contraction of guinea pig trachea at 3*10e-8 M concentration.

Row | SMILES | IC50 (Cavia porcellus [5]) [nM] | IC50 (Cavia porcellus [7]) [nM] | Inhibition (Cavia porcellus [1]) [%] | Inhibition (Cavia porcellus [2]) [%] | Inhibition (Cavia porcellus [12]) [%] | other results
1 | COC1(OC)C(=O)C(C/C=C(\C)CCC=C(C)C)=C(O)C(CC=C(C)C)=C1O | – | – | 63.6 | 94.9 | – | –
2 | CCCC(=O)c1c(O)cc(O)cc1O | – | – | – | – | – | Inhibition (Cavia porcellus [3]): 27.3%
3 | CCCCCCCC(=O)c1c(O)cc(O)c(C(=O)CCCCCCC)c1O | – | – | 17.4 | 15.1 | – | –
4 | CCCCC1(CCCC)C(=O)C(C(=O)C(C)C)=C(O)C(C(=O)C(C)C)=C1O | 1200 | 1800 | 100 | 91.6 | 58.6 | Inhibition (Cavia porcellus [13]): 66.5%
5 | CCCCCC1(CCCCC)C(=O)C(C(=O)C(C)C)=C(O)C(C(=O)C(C)C)=C1O | 2300 | 5600 | 95 | 80.4 | 17 | Inhibition (Cavia porcellus [13]): 58.3%
6 | CC(=O)c1c(O)cc(O)c(C(C)=O)c1O | – | – | 39.1 | 44.3 | – | –
7 | CCCCCC(=O)c1c(O)cc(O)c(C(=O)CCCCC)c1O | – | – | 43.3 | 25.9 | – | –
8 | CC(C)=CCC/C(C)=C/COc1cc(O)c(C(=O)C(C)C)c(O)c1C | – | – | – | 10.8 | – | Inhibition (Cavia porcellus [21]): 12.6%; Inhibition (Cavia porcellus [22]): 50.9%; Inhibition (Cavia porcellus [23]): 50%
9 | CC(C)C(=O)c1c(C(C)C)nn2ccccc12 [IBUDILAST] | – | – | – | – | – | Inhibition (Cavia porcellus [24]): 85.4%

The next lines start with results.

Row | IC50 (Cavia porcellus [5]) [nM] | IC50 (Cavia porcellus [7]) [nM] | SMILES | Inhibition (Cavia porcellus [1]) [%] | Inhibition (Cavia porcellus [2]) [%] | Inhibition (Cavia porcellus [12]) [%] | other results
10 | 12000 | – | CCC(=O)c1c(O)cc(O)c(C(=O)CC)c1O | 97.1 | 53.4 | – | Inhibition (Cavia porcellus [4]): 42.5%; Inhibition (Cavia porcellus [6]): 30.8%
11 | 350 | 310 | CCC1(CC)C(=O)C(C(=O)C(C)C)=C(O)C(C(=O)C(C)C)=C1O | – | – | – | Inhibition (Cavia porcellus [8]): 44.9%; Inhibition (Cavia porcellus [9]): 87.8%; Inhibition (Cavia porcellus [10]): 84.2%; Inhibition (Cavia porcellus [11]): 49%
12 | 570 | 580 | CC(C)C(=O)C1=C(O)C(C)(C)C(O)=C(C(=O)C(C)C)C1=O | – | – | 80.2 | Inhibition (Cavia porcellus [4]): 60.7%; Inhibition (Cavia porcellus [13]): 87%; Inhibition (Cavia porcellus [14]): 38.5%; Inhibition (Cavia porcellus [6]): 36.8%; Inhibition (Cavia porcellus [15]): 61.2%
13 | – | 4700 | CC(C)CC(=O)c1c(O)cc(O)cc1O | – | – | 22.7 | Inhibition (Cavia porcellus [3]): 96.6%
14 | 1400 | 2700 | CCCC(=O)c1c(O)cc(O)c(C(=O)CCC)c1O | 87 | – | – | Inhibition (Cavia porcellus [4]): 59.4%; Inhibition (Cavia porcellus [6]): 12.5%; Inhibition (Cavia porcellus [16]): 72.5%; Inhibition (Cavia porcellus [15]): 57%; Inhibition (Cavia porcellus [17]): 8.4%
15 | 5900 | 6900 | CCCC1(CCC)C(=O)C(C(=O)C(C)C)=C(O)C(C(=O)C(C)C)=C1O | 88.5 | 81.7 | 25.3 | Inhibition (Cavia porcellus [13]): 28.5%
16 | 1400 | 1700 | CCC(C)C(=O)c1c(O)cc(O)c(C(=O)C(C)CC)c1O (stereo not given) | 80.1 | 98 | – | Inhibition (Cavia porcellus [4]): 45.5%; Inhibition (Cavia porcellus [15]): 34.7%
17 | 560 | 1500 | CC(C)CC(=O)c1c(O)cc(O)c(C(=O)CC(C)C)c1O | 100 | 100 | – | Inhibition (Cavia porcellus [4]): 78.2%; Inhibition (Cavia porcellus [6]): 29.9%; Inhibition (Cavia porcellus [15]): 42%; Inhibition (Cavia porcellus [17]): 22.6%
18 | – | 6000 | CCC(C)C(=O)c1c(O)cc(O)cc1O (stereo not given) | – | – | 13.8 | Inhibition (Cavia porcellus [18]): 25.4%; Inhibition (Cavia porcellus [3]): 76.3%
19 | 7600 | 8900 | CCCCCC(=O)c1c(O)cc(O)cc1O | 93.9 | – | – | Inhibition (Cavia porcellus [19]): 100%; Inhibition (Cavia porcellus [20]): 62.3%; Inhibition (Cavia porcellus [3]): 56.9%
20 | 1200 | – | CC(C)C(=O)c1c(O)cc(O)c(C(=O)C(C)C)c1O | 92.3 | 53.6 | – | Inhibition (Cavia porcellus [4]): 48.5%; Inhibition (Cavia porcellus [6]): 28.9%
21 | – | 6600 | CC(C)C(=O)c1c(O)cc(O)cc1O [PHLOROISOBUTYROPHENONE] | – | – | 11 | Inhibition (Cavia porcellus [20]): 32%; Inhibition (Cavia porcellus [3]): 70.4%

Reference: ChEMBL document CHEMBL1126287, “Analogues of natural phloroglucinols as antagonists against both thromboxane A2 and leukotriene D4” (J Med Chem, 1992)
